Data: EP0339681B1, “Antitumor antibiotic substance” (MEIJI SEIKA KAISHA LTD., priority 1988, dated 1989)
Values after ≈ are worked out from the molar mass of the structure shown.

How the values were obtained:
infection = conditions: mouse, in vivo; cited from earlier work
P-388 tumor cells = experiment: Therapeutic test on mice with intraperitoneally transplanted P-388 tumor cells; format: in vivo, mouse; conditions: intraperitoneally once a day for two days
Description: To evaluate antitumor activity of the test compounds, the following therapeutic test was conducted.
P-388 tumor cells were transplanted into the abdominal cavity of a mouse. A test compound was intraperitoneally administered to the animal once a day for two days. The effect thus observed is expressed in ILS (%). [formula]

[1] = test system: P-388 mouse leukemia cells; experiment: Cytotoxic effect: 50% growth inhibition of P-388 cells; conditions: P388, 72 h, read-out: IC₅₀

Compound | therapeutic effect on infection (infection) | IC50 [1] [µg/mL] | other results
COC(=O)C1(C)Nc2c(O)cc3c(c2C1=O)C(CCl)CN3C(=O)c1cc2cc(OC)c(OC)c(OC)c2[nH]1 (stereo not drawn) [SF2582A] | therapeutic effect on infection |  | 
COC(=O)C1(C)Nc2c(OS(C)(=O)=O)cc3c(c2C1=O)C(CO)CN3C(=O)c1cc2cc(OC)c(OC)c(OC)c2[nH]1 (stereo not drawn) [Compound 2] |  | 0.004 (≈ 0.00663 µM) | ILS (%) (P-388 tumor cells; Dose 0.25 mg/kg): 15%; ILS (%) (P-388 tumor cells; Dose 0.5 mg/kg): 40%; ILS (%) (P-388 tumor cells; Dose 1 mg/kg): 40%
COC(=O)C1(C)Nc2c(OS(=O)(=O)c3ccc(C)cc3)cc3c(c2C1=O)C(CO)CN3C(=O)c1cc2cc(OC)c(OC)c(OC)c2[nH]1 (stereo not drawn) [Compound 3] |  | 2.5 (≈ 3.68 µM) | 
COC(=O)C1(C)Nc2c(O)cc3c(c2C1=O)C(CO)CN3C(=O)c1cc2cc(OC)c(OC)c(OC)c2[nH]1 (stereo not drawn) | therapeutic effect on infection |  | 
COC(=O)C1(C)Nc2c(OS(C)(=O)=O)cc3c(c2C1=O)C(COS(C)(=O)=O)CN3C(=O)c1cc2cc(OC)c(OC)c(OC)c2[nH]1 (stereo not drawn) [Compound 1] |  | 0.06 (≈ 0.088 µM) | ILS (%) (P-388 tumor cells; Dose 2.4 mg/kg): 40%; ILS (%) (P-388 tumor cells; Dose 7 mg/kg): 40%; ILS (%) (P-388 tumor cells; Dose 21 mg/kg): 54%
COC(=O)C1(C)Nc2c(O)cc3c(c2C1=O)CC(Cl)CN3C(=O)c1cc2cc(OC)c(OC)c(OC)c2[nH]1 (stereo not drawn) [SF2582B] | therapeutic effect on infection |  | 
